Test results as given in patent US20070014788A1, “Laminin-5 modulators and uses thereof” (Novo Nordisk A/S, priority 2004, published 2007).

B1: TRAIL: TNF-related apoptosis-inducing ligand (protein, UniProt P50591 1-281, looked up)
Tumor necrosis factor ligand …: MAMMEVQGGPSLGQTCVLIVIFTVLLQSLCVAVTYVYFTNELKQMQDKYSKSGIACFLKEDDSYWDPNDEESMNSPCWQVKWQLRQLVRKMILRTSEETISTVQEKQQNISPLVRERGPQRVAAHITGTRGRSNTLSSPNSKNEKALGRKINSWESSRSGHSFLSNLHLRNGELVIHEKGFYYIYSQTYFRFQEEIKENTKNDKQMVQYIYKYTSYPDPILLMKSARNSCWSKDAEYGLYSIYQGGIFELKENDRIFVSVTNEHLIDMDHEASFFGAFLVG

Test system: SW480 cells
Test: Cell death (LDH release) of transfected SW480 cells, alone and with anti-cancer compounds
Assay type: cell-based
Conditions: low dose of compound, 24 hours
Protocol: SW480 cells obtained from ATCC were grown in DME:F12 supplemented with 10% foetal calf serum and routinely checked for being mycoplasma free. For transfection, the cells were seeded as 3×10^5 cells/2 ml in 6 well plates. Transfection was carried out after cells have attached at least overnight using Lipofectamin 2000 (Life Technologies). Liposomes were formed in medium without serum by mixing 10 μl lipofectamine 2000 and 3 μg plasmid DNA or 15 μl 20 pmol/μl oligonucleotide in a total volume of 250 μl. After liposome formation, the mixture was added to cells and incubated 5 hours in cell incubator before medium was changed to complete medium with serum. After 24 hours, cells were trypsinised and moved to 96 well plates to analyse for death induction.
The cells were allowed to plate for 24 hours before dosing with the indicated compounds, all in triplicate. The compounds were solubilised in DMSO and added to cells in medium with no more than 0.1% v/v DMSO. Triplicate cell cultures for basal cell death (untreated) and maximal response (complete lysis) were included as well as triplicate media samples for background determination. Cells were incubated for additional 24 hours. The maximal response (100% cell death) was induced by adding 1% v/v Triton X100 to triplicate cell cultures 5 min before medium was collected for detection of lactate dehydrogenase (LDH) activity. Medium from all samples were used in the detection of LDH using a kit from Takara Bio Inc.

Row | Molecule | effect of added compound on the increased cell death by siRNA against gamma2
1 | CN[C@@H]1C[C@H]2O[C@@](C)([C@@H]1OC)n1c3ccccc3c3c4c(c5c6ccccc6n2c5c31)C(=O)NC4 [staurosporine] | did not attenuate
2 | C/C=C(/C)C(=O)O[C@H]1C(C)=C2[C@H]([C@@H]1OC(=O)CCCCCCC)[C@@](C)(OC(C)=O)C[C@H](OC(=O)CCC)[C@@]1(O)[C@H]2OC(=O)[C@@]1(C)O [thapsigargin] | did not attenuate
3 | tunicamycin | did not attenuate
4 | B1 | did not attenuate
